Values quoted from earlier work, collected in PubChem BioAssay AID1259409 (Chemical Carcinogenesis Research Information System (CCRIS), 2018).

System: rodent chemically induced tumor inhibition, incidence and multiplicity
Assay: CCRIS tumor inhibitor studies
Settings: Route [Inhibitor]: ORAL

In the case of `S=C=NCCc1ccccc1`, the “tumour outcome (control, treated, inhibition, significance)” value (Carcinogen: DIETHYLNITROSAMINE, 55-18-5, N-METHYL-N-NITROSOUREA, 684-93-5, N-BUTYL-N-(4-HYDROXYBUTYL)NITROSAMINE, 3817-11-6, DIMETHY, Carcinogen: DIETHYLNITROSAMINE, 55-18-5, N-METHYL-N-NITROSOUREA, 684-93-5, N-BUTYL-N-(4-HYDROXYBUTYL)NITROSAMINE, 3817-11-6, DIMETHY, Dose [Inhibitor]: 0, 0.1% IN THE DIET FOR 30 D BEGINNING 1 DAY PRIOR TO CARCINOGEN TREATMENT (STUDY DURATION: 28 WK), Species: RAT, Strain/Sex: F344/MALE, Target Tissue: Type of Lesion: LARGE INTESTINE: ADENOMA, Dose [Carcinogen]: 100 MG/KG BW DEN ONCE FOLLOWED BY 20 MG/KG BW MNU 4 TIMES AND 0.05% BBN IN DRINKING WATER DURING FIRST 2 WK THEN 40 MG/K, Promoter: NONE USED) is given as 27%, 54%, -100%, not significant, the “tumour outcome (control, treated, inhibition, significance)” value (Carcinogen: DIETHYLNITROSAMINE, 55-18-5, N-METHYL-N-NITROSOUREA, 684-93-5, N-BUTYL-N-(4-HYDROXYBUTYL)NITROSAMINE, 3817-11-6, DIMETHY, Carcinogen: DIETHYLNITROSAMINE, 55-18-5, N-METHYL-N-NITROSOUREA, 684-93-5, N-BUTYL-N-(4-HYDROXYBUTYL)NITROSAMINE, 3817-11-6, DIMETHY, Dose [Inhibitor]: 0, 0.1% IN THE DIET FOR 30 D BEGINNING 1 DAY PRIOR TO CARCINOGEN TREATMENT (STUDY DURATION: 28 WK), Species: RAT, Strain/Sex: F344/MALE, Target Tissue: Type of Lesion: SMALL INTESTINE: CARCINOMA, Dose [Carcinogen]: 100 MG/KG BW DEN ONCE FOLLOWED BY 20 MG/KG BW MNU 4 TIMES AND 0.05% BBN IN DRINKING WATER DURING FIRST 2 WK THEN 40 MG/K, Promoter: NONE USED) is given as 7%, 23%, -229%, not significant and the “tumour outcome (control, treated, inhibition, significance)” value (Carcinogen: DIETHYLNITROSAMINE, 55-18-5, N-METHYL-N-NITROSOUREA, 684-93-5, N-BUTYL-N-(4-HYDROXYBUTYL)NITROSAMINE, 3817-11-6, DIMETHY, Carcinogen: DIETHYLNITROSAMINE, 55-18-5, N-METHYL-N-NITROSOUREA, 684-93-5, N-BUTYL-N-(4-HYDROXYBUTYL)NITROSAMINE, 3817-11-6, DIMETHY, Dose [Inhibitor]: 0, 0.1% IN THE DIET FOR 30 D BEGINNING 1 DAY PRIOR TO CARCINOGEN TREATMENT (STUDY DURATION: 28 WK), Species: RAT, Strain/Sex: F344/MALE, Target Tissue: Type of Lesion: THYROID: CARCINOMA, Dose [Carcinogen]: 100 MG/KG BW DEN ONCE FOLLOWED BY 20 MG/KG BW MNU 4 TIMES AND 0.05% BBN IN DRINKING WATER DURING FIRST 2 WK THEN 40 MG/K, Promoter: NONE USED) is given as 7%, 8%, -14%, not significant. For the same compound, the “tumour outcome (control, treated, inhibition, significance)” value (Carcinogen: DIETHYLNITROSAMINE, 55-18-5, N-METHYL-N-NITROSOUREA, 684-93-5, N-BUTYL-N-(4-HYDROXYBUTYL)NITROSAMINE, 3817-11-6, DIMETHY, Carcinogen: DIETHYLNITROSAMINE, 55-18-5, N-METHYL-N-NITROSOUREA, 684-93-5, N-BUTYL-N-(4-HYDROXYBUTYL)NITROSAMINE, 3817-11-6, DIMETHY, Dose [Inhibitor]: 0, 0.1 IN THE DIET FOR 30 D BEGINNING 1 DAY PRIOR TO CARCINOGEN TREATMENT (STUDY DURATION: 28 WK), Species: RAT, Strain/Sex: F344/MALE, Target Tissue: Type of Lesion: SMALL INTESTINE: ADENOMA, Dose [Carcinogen]: 100 MG/KG BW DEN ONCE FOLLOWED BY 20 MG/KG BW MNU 4 TIMES AND 0.05% BBN IN DRINKING WATER DURING FIRST 2 WK THEN 40 MG/K, Promoter: NONE USED) was 33%, 31%, 6%, not significant, the “tumour outcome (control, treated, inhibition, significance)” value (Carcinogen: DIETHYLNITROSAMINE, 55-18-5, N-METHYL-N-NITROSOUREA, 684-93-5, N-BUTYL-N-(4-HYDROXYBUTYL)NITROSAMINE, 3817-11-6, DIMETHY, Carcinogen: DIETHYLNITROSAMINE, 55-18-5, N-METHYL-N-NITROSOUREA, 684-93-5, N-BUTYL-N-(4-HYDROXYBUTYL)NITROSAMINE, 3817-11-6, DIMETHY, Dose [Inhibitor]: 0.1% IN THE DIET FOR 30 D BEGINNING 1 DAY PRIOR TO CARCINOGEN TREATMENT (STUDY DURATION: 28 WK), Species: RAT, Strain/Sex: F344/MALE, Target Tissue: Type of Lesion: URINARY BLADDER: CARCINOMA, Dose [Carcinogen]: 100 MG/KG BW DEN ONCE FOLLOWED BY 20 MG/KG BW MNU 4 TIMES AND 0.05% BBN IN DRINKING WATER DURING FIRST 2 WK THEN 40 MG/K, Promoter: NONE USED) was 7%, 0%, 100%, not significant and the “tumour outcome (control, treated, inhibition, significance)” value (Carcinogen: DIETHYLNITROSAMINE, 55-18-5, N-METHYL-N-NITRSOUREA, 684-93-5, N-BUTYL-N-(4-HYDROXYBUTYL)NITROSAMINE, 3817-11-6, DIMETHYL, Carcinogen: DIETHYLNITROSAMINE, 55-18-5, N-METHYL-N-NITRSOUREA, 684-93-5, N-BUTYL-N-(4-HYDROXYBUTYL)NITROSAMINE, 3817-11-6, DIMETHYL, Dose [Inhibitor]: 0, 0.1% IN THE DIET FOR 30 D BEGINNING 1 DAY PRIOR TO CARCINOGEN TREATMENT (STUDY DURATION: 28 WK), Species: RAT, Strain/Sex: F344/MALE, Target Tissue: Type of Lesion: URINARY BLADDER: PAPILLOMA, Dose [Carcinogen]: 100 MG/KG BW DEN ONCE FOLLOWED BY 20 MG/KG BW MNU 4 TIMES AND 0.05% BBN IN DRINKING WATER DURING FIRST 2 WK THEN 40 MG/K, Promoter: NONE USED) was 7%, 0%, 100%, not significant. For the same compound, the “tumour outcome (control, treated, inhibition, significance)” value (Carcinogen: N-BUTYL-N(4-HYDROXYBUTYL)NITROSAMINE (3817-11-6), Dose [Inhibitor]: 0.5 UMOL/G IN DIET BEGINNING 1 WK BEFORE CARCINOGEN EXPOSURE (STUDY DURATION: 16 WK), Species: RAT, Strain/Sex: WISTAR/MALE, Target Tissue: Type of Lesion: URINARY BLADDER: PAPILLOMA, Dose [Carcinogen]: 0.025% IN DRINKING WATER FOR 15 WK, Promoter: NONE USED) was 38/40 (95%), 26/30 (87%), 8%, not significant, the “tumour outcome (control, treated, inhibition, significance)” value (Carcinogen: N-BUTYL-N(4-HYDROXYBUTYL)NITROSAMINE (3817-11-6), Dose [Inhibitor]: 0.5 UMOL/G IN DIET BEGINNING 1 WK BEFORE CARCINOGEN EXPOSURE (STUDY DURATION: 16 WK), Species: RAT, Strain/Sex: WISTAR/MALE, Target Tissue: Type of Lesion: URINARY BLADDER: TRANSITIONAL CELL CARCINOMA, Dose [Carcinogen]: 0.025% IN DRINKING WATER FOR 15 WK, Promoter: NONE USED) was 4/40 (10%), 4/30 (13%), -30%, not significant and the “tumour outcome (control, treated, inhibition, significance)” value (Carcinogen: N-NITROSOBENZYLMETHYLAMINE, 937-40-6, Dose [Inhibitor]: 0, 3 UMOL/G DIET BEGINNING 2 WK PRIOR TO CARCINOGEN TREATMENT AND CONTINUING FOR 8 WK POST CARCINOGEN TREATMENT (STUDY D, Species: RAT, Strain/Sex: F344/MALE, Target Tissue: Type of Lesion: ESOPHAGUS: TUMOR, Dose [Carcinogen]: 0.5 MG/KG 1/WK FOR 15 WK, Promoter: NONE USED) was 100%, 13%, 87%, not calculated. For the same compound, the “tumour outcome (control, treated, inhibition, significance)” value (Carcinogen: N-NITROSOBENZYLMETHYLAMINE, 937-40-6, Dose [Inhibitor]: 0, 3 UMOL/G IN DIET BEGINNING 2 WK PRIOR TO CARCINOGEN TREATMENT AND CONTINUING FOR DURATION OF STUDY (STUDY DURATION: 2, Species: RAT, Strain/Sex: F344/MALE, Target Tissue: Type of Lesion: ESOPHAGUS: TUMORS, Dose [Carcinogen]: 0.5 MG/KG BW IN 0.1 ML OF DMSO 1/WK FOR 15 WK, Promoter: NONE USED) was 100%, 13%, 87%, not calculated, the “tumour outcome (control, treated, inhibition, significance)” value (Carcinogen: N-NITROSOBENZYLMETHYLAMINE, 937-40-6, Dose [Inhibitor]: 0, 6 UMOL/G DIET BEGINNING 2 WK PRIOR TO CARCINOGEN TREATMENT AND CONTINUING FOR 8 WK POST CARCINOGEN TREATMENT (STUDY D, Species: RAT, Strain/Sex: F344/MALE, Target Tissue: Type of Lesion: ESOPHAGUS: TUMOR, Dose [Carcinogen]: 0.5 MG/KG 1/WK FOR 15 WK, Promoter: NONE USED) was 100%, 0%, 100%, not calculated and the “tumour outcome (control, treated, inhibition, significance)” value (Carcinogen: N-NITROSOBENZYLMETHYLAMINE, 937-40-6, Dose [Inhibitor]: 0, 6 UMOL/G IN DIET BEGINNING 2 WK PRIOR TO CARCINOGEN TREATMENT AND CONTINUING FOR DURATION OF STUDY (STUDY DURATION: 2, Species: RAT, Strain/Sex: F344/MALE, Target Tissue: Type of Lesion: ESOPHAGUS: TUMORS, Dose [Carcinogen]: 0.5 MG/KG BW IN 0.1 ML OF DMSO 1/WK FOR 15 WK, Promoter: NONE USED) was 15/15 (100%), 0/15 (0%), 100%, not calculated. For the same compound, the “tumour outcome (control, treated, inhibition, significance)” value (Carcinogen: N-NITROSOBIS(2-OXOPROPYL)AMINE [60599-38-4], Dose [Inhibitor]: 3 UMOL IN DIET FOR 49 WK BEGINNING 2 WK POST LAST CARCINOGEN DOSE (STUDY DURATION: 52 WK), Species: HAMSTER, Strain/Sex: SYRIAN/FEMALE, Target Tissue: Type of Lesion: LIVER: CHOLANGIOCELLAR ADENOMA, Dose [Carcinogen]: 20 MG/KG BW 1X/WK FOR 2 WK (STUDY DURATION: 52 WK), Promoter: NONE) was 19/25 (76.0%), 20/28 (71.4%), 6%, not significant, the “tumour outcome (control, treated, inhibition, significance)” value (Carcinogen: N-NITROSOBIS(2-OXOPROPYL)AMINE [60599-38-4], Dose [Inhibitor]: 3 UMOL IN DIET FOR 49 WK BEGINNING 2 WK POST LAST CARCINOGEN DOSE (STUDY DURATION: 52 WK), Species: HAMSTER, Strain/Sex: SYRIAN/FEMALE, Target Tissue: Type of Lesion: LIVER: CHOLANGIOCELLULAR ADENOMA, Dose [Carcinogen]: 20 MG/KG BW 1X/WK FOR 2 WK (STUDY DURATION: 52 WK), Promoter: NONE) was 19/25 (76.0%), 23/28 (82.1%), -8%, not significant and the “tumour outcome (control, treated, inhibition, significance)” value (Carcinogen: N-NITROSOBIS(2-OXOPROPYL)AMINE [60599-38-4], Dose [Inhibitor]: 3 UMOL IN DIET FOR 49 WK BEGINNING 2 WK POST LAST CARCINOGEN DOSE (STUDY DURATION: 52 WK), Species: HAMSTER, Strain/Sex: SYRIAN/FEMALE, Target Tissue: Type of Lesion: LIVER: HEPATOCELLULAR ADENOMA, Dose [Carcinogen]: 20 MG/KG BW 1X/WK FOR 2 WK (STUDY DURATION: 52 WK), Promoter: NONE) was 18/25 (72.0%), 16/28 (57.1%), 21%, not significant.
